Source: patent US20130072495A1, “FUSED BICYCLIC KINASE INHIBITORS” (OSI Pharmaceuticals, LLC, priority 2010, published 2013)
pIC50: −log10 of the molar value.

How the values were obtained:
[1] = tested on: MKN45 cells; assay: MKN45 cell proliferation assay (CellTiter-Glo); type: cell-based; conditions: Homo sapiens, MKN-45, 72 h; MKN45 cell line, 3 days incubation, at least duplicate experiments; read-out: Prolif. IC50
Experimental: The effect of inhibitors on the proliferation of MKN45 cells was determined using the following protocol. MKN45 cells were plated in Corning 3917 96-well white tissue culture treated plates in growth medium (RPMI, 10% FCS) at a density of 5000 cells/well in a total volume of 135 μL and incubated at 37° C., 5% CO2, 95% humidity overnight. The following day, one-tenth volume of a 10× concentration of compounds was added to the wells in an 8-point dilution series. The dilution series was composed of an initial 1:5 dilution of a 10 mM stock of compound in DMSO, followed by serial 1:4 dilutions in DMSO, then a 1:20 dilution in growth medium prior to the 1:10 dilution into the cell plate. Final DMSO concentration on the cells was 0.1%, there were control wells treated with both 0.1% DMSO and no DMSO. The typical dilution range is 10 μM to 0.6 nM. Once the compound was added to the cells, plates were incubated for 3 days at 37° C., 5% CO2 at 95% humidity. On the third day, after allowing all cells and reagents to come to room temperature, 25 μL of CellTiter-Glo reagent (Promega # G7573) was added to the wells. Plates were shaken on a platform for 10 minutes prior to reading luminescence for 0.1 seconds. The signal of the control wells was taken as 100% growth and growth inhibition was expressed as percent of control. IC50 values were determined from the percent of control data using a standard four-parameter model.
(§1) The IC50 values of exemplary compounds of the present invention determined in a cell proliferation assay using the MKN45 cell line according to the procedures described herein in at least duplicate experiments are abbreviated as follows and are shown in Table 1: A, IC50≦0.1 μM; B, 0.1 μM<IC50≦0.5 μM; C, 0.5 μM<IC50≦2 μM; D, IC50>2 μM; ND, not determined. The Example # of Table 1 corresponds to the compound example number as illustrated in the Experimental section above.
Treatment of this cell line with a selective MET inhibitor led to induction of apoptosis and inhibition of proliferation, whereas non-MET-amplified cell lines were not affected. Smolen et al., Proc. Natl. Acad. Sci. USA, 103(7):2316-2321 (2006). This cell line is thus “driven” by MET, and antiproliferative effects correlate very well with the inhibition of MET phosphorylation so that the cell proliferation IC50 values can be used as surrogate for the MET cell mechanistic IC50 values. Under the assay conditions described herein, the IC50 values correlate nearly 1:1.

[2] = molecular target: T1, MET (Homo sapiens, UniProt P08581); assay: MET cell mechanistic assay (MKN45), phosphorylated MET levels; type: cell-based; conditions: MKN45 cell line, four hours incubation, at least duplicate experiments, read-out: MET mech IC50
T1 construct: endogenous in cells; host or cells: MKN45
T1 sequence (P08581 25-1390): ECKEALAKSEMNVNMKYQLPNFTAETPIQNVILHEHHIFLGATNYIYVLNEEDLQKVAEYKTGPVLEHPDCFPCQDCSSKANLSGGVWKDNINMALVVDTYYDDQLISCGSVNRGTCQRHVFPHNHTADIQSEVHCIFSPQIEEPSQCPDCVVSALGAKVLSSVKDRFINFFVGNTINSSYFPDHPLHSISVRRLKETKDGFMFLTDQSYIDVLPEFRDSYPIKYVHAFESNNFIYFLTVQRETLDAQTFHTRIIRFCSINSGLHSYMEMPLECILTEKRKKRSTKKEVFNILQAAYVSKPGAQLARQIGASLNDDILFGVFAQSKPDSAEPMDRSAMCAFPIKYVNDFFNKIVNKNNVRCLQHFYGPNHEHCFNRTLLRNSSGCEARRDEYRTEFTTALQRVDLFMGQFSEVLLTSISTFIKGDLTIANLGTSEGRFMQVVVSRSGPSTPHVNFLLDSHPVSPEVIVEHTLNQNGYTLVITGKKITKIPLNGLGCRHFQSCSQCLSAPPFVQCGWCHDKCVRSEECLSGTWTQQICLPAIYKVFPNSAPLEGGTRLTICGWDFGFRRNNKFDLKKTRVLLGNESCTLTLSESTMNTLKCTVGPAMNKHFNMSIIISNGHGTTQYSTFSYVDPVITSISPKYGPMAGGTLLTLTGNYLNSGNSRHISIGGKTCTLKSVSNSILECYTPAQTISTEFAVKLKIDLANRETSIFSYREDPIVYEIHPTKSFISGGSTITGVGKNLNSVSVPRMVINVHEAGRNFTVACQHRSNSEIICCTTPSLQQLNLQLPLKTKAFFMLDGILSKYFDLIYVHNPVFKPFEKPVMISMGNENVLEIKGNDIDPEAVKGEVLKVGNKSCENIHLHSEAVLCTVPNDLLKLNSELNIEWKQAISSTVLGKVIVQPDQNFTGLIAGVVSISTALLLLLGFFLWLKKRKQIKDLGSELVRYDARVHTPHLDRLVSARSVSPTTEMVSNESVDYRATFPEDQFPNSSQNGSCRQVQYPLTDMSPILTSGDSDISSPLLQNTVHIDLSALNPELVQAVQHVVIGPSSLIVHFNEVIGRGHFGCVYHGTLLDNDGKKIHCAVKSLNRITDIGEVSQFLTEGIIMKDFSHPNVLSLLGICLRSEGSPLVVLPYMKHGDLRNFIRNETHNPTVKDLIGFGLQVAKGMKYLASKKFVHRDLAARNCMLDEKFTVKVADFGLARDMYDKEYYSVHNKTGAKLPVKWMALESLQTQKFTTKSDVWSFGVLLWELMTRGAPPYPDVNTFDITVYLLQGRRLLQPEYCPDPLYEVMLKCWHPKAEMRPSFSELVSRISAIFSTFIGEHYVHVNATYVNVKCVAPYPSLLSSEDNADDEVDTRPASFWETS
Experimental: The cellular activity of the compounds of the present invention against MET may be determined by the following procedure. MKN45 cells were plated in Falcon 3072 96-well plates in growth media (RPMI, 10% FBS, 1% L-glutamine) at a density of 5000 cells/well and incubated at 37° C., 5% CO2 overnight. The following day, one-tenth volume of a 10× concentration of compounds was added to the wells in a 6-point dilution series. The dilutions series was composed of an initial […] in DMSO, followed by a […] in growth media, for a final DMSO concentration on cells of 0.5%. Control wells were treated with 0.5% DMSO. The typical range of dilution was 10 μM to 3 nM. Once compound was added to the cells, plates were incubated for four hours at 37° C., 5% CO2. Plates were then washed in PBS, and lysed in triton-based lysis buffer. Lysates were transferred to a precoated capture plate made by Biosource (Cat # KHO0281). The phosphorylated MET levels were measured by incubating with a rabbit polyclonal antibody against phosphorylated MET ([pYpYpY1230/1234/1235]) followed by an anti-rabbit antibody conjugated to HRP. Signal was measured on a Wallac Victor plate reader at 450 nm. The DMSO signal of the control wells was defined as 100% and the percent of inhibition of phosphorylated MET was expressed as percent of control. IC50 values were determined from the percent of control data using a standard four-parameter model.
as §1, with “in a MET cell mechanistic” for “in a cell proliferation”, “MET cell mechanistic assay using” for “a cell proliferation assay using”, “in Table 2: A, IC50≦0.1” for “in Table 1: A, IC50≦0.1”, “of Table 2 corresponds to” for “of Table 1 corresponds to”

Compound | pIC50 [1] | pIC50 [2]
CC(c1c(Cl)ccc(F)c1Cl)c1c[nH]c2ncc(-c3cnn(C4CCN(C=O)CC4)c3)nc12 (stereo not drawn) [Example 3, 4-(4-{7-[1-(2,6-dichloro-3-fluorophenyl)ethyl]-5H-pyrrolo[2,3-b]pyrazin-2-yl}-1H-pyrazol-1-yl)piperidine-1-carbaldehyde] | 5.70 to 6.30 | 6.30 to 7.00
CC(c1c(Cl)ccc(F)c1Cl)c1c[nH]c2ncc(-c3cnn(C4CCNCC4)c3)nc12 (stereo not drawn) [Example 2, 7-[1-(2,6-dichloro-3-fluorophenyl)ethyl]-2-(1-piperidin-4-yl-1H-pyrazol-4-yl)-5H-pyrrolo[2,3-b]pyrazine] | 6.30 to 7.00 | 6.30 to 7.00
CC(c1c(Cl)ccc(F)c1Cl)c1c[nH]c2nnc(-c3cnn(C4CCNCC4)c3)cc12 (stereo not drawn) [Example 16, 5-[1-(2,6-Dichloro-3-fluorophenyl)ethyl]-3-[1-(piperidin-4-yl)-1H-pyrazol-4-yl]-7H-pyrrolo[2,3-c]pyridazine] | < 5.70 | < 5.70
